Reference: patent publication US20090062337A1, “Treatment of Microbial Infections” (WYSIS TECHNOLOGY FOUNDATION, INC., priority 2007, published 2009)
In brackets after ≈: the same amount, converted by molar mass.

Tested on: Burkholderia cepacia
Assay: MIC against Burkholderia cepacia
Assay type: cell-based
Details: Table 2; comparison of compounds against Burkholderia cepacia

Row | MIC | SMILES
1 | > 128 µg/mL | Oc1ccc2ccccc2n1 [2-hydroxyquinolone]
2 | 40 µg/mL (≈ 277 µM) | Nc1ccnc2ccccc12 [4-aminoquinoline]
